From patent publication US10040759B2, “Substituted azetidinyl compounds as GlyT1 inhibitors” (DART NEUROSCIENCE (CAYMAN) LTD., priority 2014, dated 2018)

Target: T1, GlyT1 (Homo sapiens, UniProt P48067)
T1 construct: expressed in transfected cells
T1 sequence (P48067 1-706): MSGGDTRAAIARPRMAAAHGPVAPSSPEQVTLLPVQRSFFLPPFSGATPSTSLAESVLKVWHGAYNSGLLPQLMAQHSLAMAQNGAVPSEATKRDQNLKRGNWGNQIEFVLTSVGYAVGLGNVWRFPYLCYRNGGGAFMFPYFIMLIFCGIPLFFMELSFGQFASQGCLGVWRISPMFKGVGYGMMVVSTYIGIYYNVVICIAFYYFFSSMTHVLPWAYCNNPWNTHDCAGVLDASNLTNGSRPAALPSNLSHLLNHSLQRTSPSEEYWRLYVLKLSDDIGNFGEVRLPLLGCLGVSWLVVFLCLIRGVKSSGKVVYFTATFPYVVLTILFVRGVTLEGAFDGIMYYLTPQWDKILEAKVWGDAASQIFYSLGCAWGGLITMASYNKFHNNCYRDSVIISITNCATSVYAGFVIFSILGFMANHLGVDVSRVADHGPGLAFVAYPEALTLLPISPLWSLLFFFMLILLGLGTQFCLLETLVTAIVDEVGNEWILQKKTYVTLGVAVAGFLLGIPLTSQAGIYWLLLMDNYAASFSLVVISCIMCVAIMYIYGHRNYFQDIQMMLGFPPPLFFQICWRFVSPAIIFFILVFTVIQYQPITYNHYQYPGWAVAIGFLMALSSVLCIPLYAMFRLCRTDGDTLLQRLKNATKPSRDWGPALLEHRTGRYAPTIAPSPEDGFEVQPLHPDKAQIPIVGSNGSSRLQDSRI
Assay: Glycine Transporter 1 (GlyT1) uptake assay, scintillation proximity assay of [14C]-glycine uptake
Format: cell-based
Conditions: [14C]-glycine uptake; read-out: GlyT1 (pIC50) (converted)
Outline: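 IC50 values were derived by four-parameter logistic fitting of counts. The 2× compound solutions were made by 1:100 dilution into HBSS of DMSO serial dilutions.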

Compound	IC50 [nM]
COc1c(C#N)ccc(O[C@@H](C)C(F)(F)F)c1C(=O)N1CC(c2ncc(C(F)(F)F)cc2C)C1 [Example 11, 2-Methoxy-3-({3-[3-methyl-5-(trifluoromethyl)pyridin-2-yl]azetidin-1-yl}carbonyl)-4-{[(2S)-1,1,1-trifluoropropan-2-yl]oxy}benzonitrile]	100 to 1000
COc1c(C#N)ccc(C2(F)CCOCC2)c1C(=O)N1CC(c2ccc(F)c(F)c2)C1 [Example 21, 3-{[3-(3,4-Difluorophenyl)azetidin-1-yl]carbonyl}-4-(4-fluorooxan-4-yl)-2-methoxybenzonitrile]	1000 to 10000
CC(Oc1ccc(C#N)c(Cl)c1C(=O)N1CC(c2ccc(C(F)(F)F)cc2)C1)C(F)(F)F (stereo not drawn) [Example 63, 2-Chloro-3-({3-[4-(trifluoromethyl)phenyl]azetidin-1-yl}carbonyl)-4-[(1,1,1-trifluoropropan-2-yl)oxy]benzonitrile]	100 to 1000
COc1c(C#N)ccc(C2(F)CCOCC2)c1C(=O)N1CC(Oc2ccc(Cl)cc2)C1 [Example 28, 3-{[3-(4-Chlorophenoxy)azetidin-1-yl]carbonyl}-4-(4-fluorooxan-4-yl)-2-methoxybenzonitrile]	100 to 1000
COc1c(C#N)ccc(O[C@@H](C)C(F)(F)F)c1C(=O)N1CC(c2ncccc2Cl)C1 [Example 38, 3-{[3-(3-Chloropyridin-2-yl)azetidin-1-yl]carbonyl}-2-methoxy-4-{[(2S)-1,1,1-trifluoropropan-2-yl]oxy}benzonitrile]	< 100
COc1c(C#N)ccc(O[C@@H](C)C(F)(F)F)c1C(=O)N1CC(Cc2ccc(F)cc2)C1 [Example 37, 3-({3-[(4-Fluorophenyl)methyl]azetidin-1-yl}carbonyl)-2-methoxy-4-{[(2S)-1,1,1-trifluoropropan-2-yl]oxy}benzonitrile]	1000 to 10000
COc1c(C#N)ccc(O[C@@H](C)C(F)(F)F)c1C(=O)N1CC(Oc2ccc(Cl)cc2)C1 [Example 29, 3-{[3-(4-Chlorophenoxy)azetidin-1-yl]carbonyl}-2-methoxy-4-{[(2S)-1,1,1-trifluoropropan-2-yl]oxyl}benzonitrile]	< 100
COc1c(S(C)(=O)=O)ccc(O[C@@H](C)C(F)(F)F)c1C(=O)N1CC(c2cc(C)ccc2F)C1 [Example 42, 3-(2-Fluoro-5-methylphenyl)-1-(3-methanesulfonyl-2-methoxy-6-{[(2S)-1,1,1-trifluoropropan-2-yl]oxy}benzoyl)azetidine]	< 100
COc1c(C#N)ccc(O[C@@H](C)C(F)(F)F)c1C(=O)N1CC(c2ncc(C#N)cc2Cl)C1 [Example 13, 5-Chloro-6-{1-[(3-cyano-2-methoxy-6-{[(2S)-1,1,1-trifluoropropan-2-yl]oxy}phenyl)carbonyl]azetidin-3-yl}pyridine-3-carbonitrile]	100 to 1000

The next lines start with the values.

IC50 [nM]	Compound
100 to 1000	COc1c(S(C)(=O)=O)ccc(OCC(F)(F)F)c1C(=O)N1CC(Oc2ccc(Cl)cc2)C1 [Example 222, 3-(4-Chlorophenoxy)-1-[3-methanesulfonyl-2-methoxy-6-(2,2,2-trifluoroethoxy)benzoyl]azetidine]
100 to 1000	COc1c(C#N)ccc(O[C@@H](C)C(F)(F)F)c1C(=O)N1CC(c2ccc(C(F)(F)F)cc2)C1 [Example 178, 2-Methoxy-3-({3-[4-(trifluoromethyl)phenyl]azetidin-1-yl}carbonyl)-4-{[(2S)-1,1,1-trifluoropropan-2-yl]oxy}benzonitrile]
< 100	COc1c(C#N)ccc(C2CC(F)(F)C2)c1C(=O)N1CC(c2ncc(C(F)(F)F)cc2F)C1 [Example 153, 4-(3,3-Difluorocyclobutyl)-3-{3-[3-fluoro-5-(trifluoromethyl)pyridin-2-yl]azetidine-1-carbonyl}-2-methoxybenzonitrile]
< 100	COc1c(C#N)ccc(C2CN(C(=O)c3c(O[C@@H](C)C(F)(F)F)ccc(C#N)c3OC)C2)c1Cl [Example 175, 3-Chloro-4-{1-[(3-cyano-2-methoxy-6-{[(2S)-1,1,1-trifluoropropan-2-yl]oxy}phenyl)carbonyl]azetidin-3-yl}-2-methoxybenzonitrile]
< 100	COc1c(S(C)(=O)=O)ccc(O[C@@H](C)C(F)(F)F)c1C(=O)N1CC(Oc2ccc(F)cc2)C1 [Example 192, 3-(4-Fluorophenoxy)-1-(3-methanesulfonyl-2-methoxy-6-{[(2S)-1,1,1-trifluoropropan-2-yl]oxy}benzoyl)azetidine]
100 to 1000	COc1c(S(C)(=O)=O)ccc(OC(C)C)c1C(=O)N1CC(Oc2ccc(C(F)(F)F)cc2)C1 [Example 218, 1-[3-Methanesulfonyl-2-methoxy-6-(propan-2-yloxy)benzoyl]-3-[4-(trifluoromethyl)phenoxy]azetidine]
100 to 1000	COc1c(C#N)ccc(OC(C)C)c1C(=O)N1CC(c2ccc(C3CCOCC3)cn2)C1 [Example 166, 2-Methoxy-3-{3-[5-(oxan-4-yl)pyridin-2-yl]azetidine-1-carbonyl}-4-(propan-2-yloxy)benzonitrile]
100 to 1000	COc1cc(C2CN(C(=O)c3c(O[C@H](C)C(F)(F)F)ccc(C#N)c3OC)C2)ccc1C#N [Example 177, 3-[3-(4-Cyano-3-methoxyphenyl)azetidine-1-carbonyl]-2-methoxy-4-{[(2R)-1,1,1-trifluoropropan-2-yl]oxy}benzonitrile]
1000 to 10000	Cc1ccc(OC2CN(C(=O)c3c(OC(C)C(F)(F)F)ccc(C#N)c3Cl)C2)cc1 (stereo not drawn) [Example 77, 2-Chloro-3-{[3-(4-methylphenoxy)azetidin-1-yl]carbonyl}-4-[(1,1,1-trifluoropropan-2-yl)oxy]benzonitrile]
< 100	COc1c(S(C)(=O)=O)ccc(O[C@@H](C)C(F)(F)F)c1C(=O)N1CC(Oc2cc(F)ccc2F)C1 [Example 205, 3-(2,5-Difluorophenoxy)-1-(3-methanesulfonyl-2-methoxy-6-{[(2S)-1,1,1-trifluoropropan-2-yl]oxy}benzoyl)azetidine]
100 to 1000	COc1c(C#N)ccc(OC(C)C(F)(F)F)c1C(=O)N1CC(c2ccccc2F)C1 (stereo not drawn) [Example 92, 3-{[3-(2-Fluorophenyl)azetidin-1-yl]carbonyl}-2-methoxy-4-[(1,1,1-trifluoropropan-2-yl)oxy]benzonitrile]
< 100	CCS(=O)(=O)c1ccc(OC(C)C)c(C(=O)N2CC(Oc3c(F)cc(F)cc3F)C2)c1OC [Example 244, 1-[3-(Ethanesulfonyl)-2-methoxy-6-(propan-2-yloxy)benzoyl]-3-(2,4,6-trifluorophenoxy)azetidine]
